Laboratory results reported in patent publication US11319348B2, “Synthetic beta-amyloid peptides capable of forming stable antigenic oligomers” (The Regents of the University of California, priority 2016, dated 2022).
Non-standard residues stand in square brackets, D forms with d. No end group written: not given here. NMeF = CN[C@@H](Cc1ccccc1)C(=O)O; Orn = NCCC[C@H](N)C(=O)O

Key:
caspase-3 = caspase-3 activation assay; format: cell-based, human; settings: for caspase-3 activation / induction of caspase-3 mediated apoptosis: SH-SY5Y cells; for caspase-3 activation: 72 h; for induction of caspase-3 mediated apoptosis: trimers at 6 μM, within 72 h; for caspase-3 activity level compared to staurosporine: after treatment of SH-SY5Y cells
Procedure: One of the ways in which A oligomers elicit toxicity is through induction of caspase-3 mediated apoptosis. Trimers 3 and 4 were evaluated for their ability to induce caspase-3 mediated apoptosis using a rhodamine-based caspase-3 activity assay.
The toxicities of peptides 1 and […], and trimers 3 and 4 toward SH-SY5Y cells were assessed by LDH release and caspase-3 activation assays. Cells were incubated in the presence or absence of equivalent concentrations of peptides 1 or 3, or trimers 3 and 4 for 72 h in 96-well plates. The LDH release assay was performed using the Pierce LDH Cytotoxicity Assay Kit from Thermo Scientific. The caspase-3 assay was performed using the Roche APO-One Homogeneous Caspase-3/7 Assay. Experiments were performed in replicates of five and an additional 10 wells were used for controls. Cells were cultured in the inner 60 wells (rows B-G, columns 2-11) of the 96-well plate. DMEM:F12 media (100 μL) was added to the outer wells (rows A and H, columns 1 and 12), in order to ensure the greatest reproducibility of data generated in the inner wells.
SH-SY5Y cells were plated in a 96-well plate at 30,000 cells per well. Cells were incubated in 100 μL of a 1:1 mixture of DMEM:F12 media supplemented with 10% fetal bovine serum, 100 U/mL penicillin, and 100 μg/mL streptomycin at 37° C. in a 5% CO2 atmosphere and allowed to adhere to the bottom of the plate for 24 hours.
After 24 hours, the culture media was removed and replaced with 90 μL of serum-free DMEM:F12 media. A 10 μL aliquot of the working solutions of peptides 1 or 2, or trimers 3 and 4 was added to each well, for a well-concentration of 18 μM and 9 μM for peptides 1 and 2, 6 μM and 3 μM for trimer 3 or 6 μM, 3 μM, 1.5 μM, and 0.75 μM for trimer 4. Experiments were run in replicates of five. Five wells were used as controls and received a 10 μL aliquot of deionized water (vehicle). Another five wells were left untreated, to be subsequently used as controls with lysis buffer for the LDH release assay, or staurosporine for the caspase-3 activation assay. Cells were incubated at 37° C. in a 5% CO2 atmosphere for 72 hours.
After 67 hours, 10 μL of 10× staurosporine was added to the control wells, and the cells were incubated for an additional 5 h. Next, the compound-containing media was removed and replaced with 25 μL of fresh serum-free DMEM/F12 media. A 25-μL aliquot of caspase-3 substrate, prepared according to manufacturer's protocol, was then added to each well. The plate was sealed with a clear adhesive plate sealer and fluorescence was monitored over 18 h while shaking at 250 rpm using a Gemini XPS fluorescence plate reader (excitation at 499 nm, emission at 521 nm). Data from the 18 h time point were processed by subtracting the relative fluorescence units (RFU) of the vehicle control wells from the RFU of the peptides 1 and 2 or trimers 3 and 4-treated wells.

[1] = size exclusion chromatography in Tris buffer; format: physicochemical; settings: SEC
Excerpt: The elution profile of peptide 8 was compared to the size standards vitamin B12, aprotinin, and cytochrome c, as well as peptide 2. Peptide 8 elutes as a broad peak with three distinct humps (FIG. 41B). […] Peptide 2 elutes as two distinct peaks: a larger peak with an elution volume consistent with the molecular weight of a dimer, and a smaller peak with an elution volume consistent with the molecular weight of a trimer (FIG. 41B). […]

[2] = X-ray crystallography, oligomers in the crystal; format: physicochemical; settings: crystal state
Procedure: The structures of trimers 3 and 4 were elucidated by X-ray crystallography. One of the challenges in X-ray crystallography is determining the X-ray crystallographic phases. Doing so often requires incorporation of a heavy atom—such as selenium, bromine or iodine—through covalent modification. In previously solving the X-ray crystallographic structures of peptides 1 and 2, homologues were prepared containing p-iodophenylalanine. In solving the X-ray crystallographic structures of trimers 3 and 4, two techniques for X-ray crystallographic phase determination that have not been widely used for peptides were employed: sulfur single-wavelength anomalous diffraction (S-SAD) and post-crystallization incorporation of iodide ions into the crystal lattice.
S-SAD was used to determine the X-ray crystallographic structure of trimer 4. The intrinsic anomalous scattering of the sulfur atoms in the asymmetric unit provided sufficient data to determine the X-ray crystallographic phases. […]
Diffraction data for trimers 3 and 4 were collected on a Rigaku Micromax-007HF X-ray diffractometer with a rotating copper anode at 1.54 Å wavelength with 0.5° oscillation. […] Coordinates for the anomalous signals were determined by HySS in the Phenix software suite 1.10.1. Electron density maps were generated using anomalous coordinates determined by HySS as initial positions in Autosol. […]

Substance: peptide 2: macrocyclic β-sheet peptide: Aβ17-23 and Aβ30-36 strands linked by two δOrn turns, Orn35, N-methyl on F20 (Seq. ID 20-21)
- caspase-3 activation (caspase-3): no
- induction of caspase-3 mediated apoptosis (caspase-3): little or no effect
- oligomer size [1]: dimer, trimer

Substance: peptide 1: macrocyclic β-sheet peptide: Aβ17-23 and Aβ30-36 strands linked by two δOrn turns, Orn35, N-methyl on G33 (Seq. ID 18-19)
- caspase-3 activation (caspase-3): no
- induction of caspase-3 mediated apoptosis (caspase-3): little or no effect

Substance: trimer 3: symmetric tris-disulfide crosslinked trimer generated from peptide 3 (chain 1 [Orn]CVFFCED; chain 2 [Orn]AIIGL[Orn]V; not fully specified (some residues); also: symmetric tris-disulfide crosslinked trimer, macrocyclic by macrolactamization, linkage of strands not given here)
- caspase-3 activation (caspase-3): yes
- caspase-3 activity level compared to staurosporine (caspase-3): comparable
- induction of caspase-3 mediated apoptosis (caspase-3): induced apoptosis
- oligomer size by crystallography [2]: 6

Substance: trimer 4: symmetric tris-disulfide crosslinked trimer generated from peptide 4 (chain 1 [Orn]CVF[NMeF]CED; chain 2 [Orn]AIIGL[Orn]V; also: symmetric tris-disulfide crosslinked trimer, macrocyclic by macrolactamization, linkage of strands not given here)
- caspase-3 activation (caspase-3): yes
- caspase-3 activity level compared to staurosporine (caspase-3): comparable
- induction of caspase-3 mediated apoptosis (caspase-3): induced apoptosis
